Reference: ChEMBL document CHEMBL1127267, “p-Guanidinobenzoyl-[Hyp3, Thi5, D-Tic7, Oic8]bradykinin is almost completely devoid of the agonist effect of HOE140 on the endothelium-free femoral artery of sheep” (Bioorg Med Chem Lett, 1994)
Square brackets hold non-standard residues; d marks the D form. Peptide text beside a SMILES is read from it. * marks the point of attachment. Benzoyl(4-guanidino) = N=C(N)Nc1ccc(C(=O)*)cc1; Oic = O=C(O)[C@@H]1C[C@@H]2CCCC[C@@H]2N1; Hyp = O=C(O)[C@@H]1C[C@@H](O)CN1; dTic = O=C(O)[C@H]1Cc2ccccc2CN1; 2Thi = N[C@@H](Cc1cccs1)C(=O)O

Biological target: T1, B2 bradykinin receptor (Homo sapiens, UniProt P30411)
T1 sequence (P30411 whole entry): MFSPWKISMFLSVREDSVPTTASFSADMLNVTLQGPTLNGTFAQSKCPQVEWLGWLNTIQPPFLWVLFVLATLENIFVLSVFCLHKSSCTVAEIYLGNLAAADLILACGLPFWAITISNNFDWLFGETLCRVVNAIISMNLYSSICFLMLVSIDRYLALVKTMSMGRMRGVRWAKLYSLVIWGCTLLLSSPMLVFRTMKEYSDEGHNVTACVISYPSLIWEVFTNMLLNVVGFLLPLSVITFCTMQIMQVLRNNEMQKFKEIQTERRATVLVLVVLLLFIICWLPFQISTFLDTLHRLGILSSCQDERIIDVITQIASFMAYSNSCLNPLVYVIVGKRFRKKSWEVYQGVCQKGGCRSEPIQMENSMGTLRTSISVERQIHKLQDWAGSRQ
Experiment: Antagonist effect against bradykinin B2 receptor was determined in rabbit jugular vein
Format: functional, tissue-based, Oryctolagus cuniculus
Conditions: target entry is the homologue from another species; read-out: pA2 (converted)

- Kb: 0.263 nM
SMILES: N=C(N)NCCC[C@H](NC(=O)[C@@H]1C[C@@H]2CCCC[C@@H]2N1C(=O)[C@H]1Cc2ccccc2CN1C(=O)[C@H](CO)NC(=O)[C@H](Cc1cccs1)NC(=O)CNC(=O)[C@@H]1C[C@@H](O)CN1C(=O)[C@@H]1CCCN1C(=O)[C@H](CCCNC(=N)N)NC(=O)c1ccc(NC(=N)N)cc1)C(=O)O ({Benzoyl(4-guanidino)}-RP[Hyp]G[2Thi]S[dTic][Oic]R-OH)
